Reference: patent US20230066946A1, “1,5-DIPHENYLPYRAZOLYL-3-OXYALKYL ACIDS AND 1-PHENYL-5-THIENYLPYRAZOLYL-3-OXYALKYL ACIDS AND THE USE THEREOF FOR CONTROL OF UNWANTED PLANT GROWTH” (Bayer Aktiengesellschaft, priority 2019, published 2023)

Assays:
AMARE [1] = experiment: Post-emergence herbicidal action against AMARE; assay type: in vivo, Amaranthus retroflexus; conditions: 1280 g/ha, visual rating about 3 weeks after treatment
Method: (§1) [table] Seeds of mono- and dicotyledonous weed plants are placed in plastic pots in sandy loam soil (twin sowing with one species each of mono- or dicotyledonous weed plants per pot), covered with soil and cultivated in a greenhouse under controlled growth conditions. 2 to 3 weeks after sowing, the test plants are treated at the one-leaf stage. The compounds of the invention, formulated in the form of wettable powders (WP) or as emulsion concentrates (EC), are applied to the green parts of the plants as aqueous suspension or emulsion with addition of 0.5% additive at a water application rate equivalent to 600 litres per hectare. After the test plants have been kept in the greenhouse under optimum growth conditions for about 3 weeks, the activity of the preparations is rated visually in comparison to untreated controls. For example, 100% activity=the plants have died, 0% activity=like control plants. Tables 5.1-5.16 below show the effects of selected compounds of the general formula (I) according to Tables 1 to 3 on various harmful plants at an application rate corresponding to 1280 or 320 g/ha, which have been obtained by the aforementioned experimental method.

MATIN = experiment: Post-emergence herbicidal action against MATIN; assay type: in vivo, Matricaria inodora; conditions: 1280 g/ha, visual rating about 3 weeks after treatment
Method: as §1

ECHCG [2] = experiment: Post-emergence herbicidal action against ECHCG; assay type: in vivo, Echinochloa crus-galli; conditions: 1280 g/ha, post-emergence at one-leaf stage, rated visually after about 3 weeks vs untreated controls
Method: as §1

SETVI [3] = experiment: Pre-emergence herbicidal action against SETVI; assay type: in vivo, Setaria viridis; conditions: 1280 g/ha, scored visually after about 3 weeks vs untreated controls
From the text: (§2) Seeds of mono- and dicotyledonous weed plants are placed in plastic pots in sandy loam soil (doubly sown with one species each of mono- or dicotyledonous weed plants per pot) and covered with soil. The compounds of the invention, formulated in the form of wettable powders (WP) or as emulsion concentrates (EC), are then applied onto the surface of the covering soil as aqueous suspension or emulsion with addition of 0.5% additive at a water application rate equivalent to 600 litres per hectare. After the treatment, the pots are placed in a greenhouse and kept under good growth conditions for the trial plants. After about 3 weeks, the effect of the preparations is scored visually in comparison with untreated controls as percentages. For example, 100% activity=the plants have died, 0% activity=like control plants. [table] Tables 4.1-4.15 below show the effects of selected compounds of the general formula (I) according to Tables 1 to 3 on various harmful plants at an application rate corresponding to 1280 or 320 g/ha, which have been obtained by the aforementioned experimental method.

STEME [4] = experiment: Pre-emergence herbicidal action against STEME; assay type: in vivo, Stellaria media; conditions: 1280 g/ha, scored visually after about 3 weeks vs untreated controls
From the text: as §2

AMARE [5] = experiment: Pre-emergence herbicidal action against AMARE; assay type: in vivo, Amaranthus retroflexus; conditions: 1280 g/ha, scored visually after about 3 weeks vs untreated controls
From the text: as §2

ECHCG [6] = experiment: Pre-emergence herbicidal action against ECHCG; assay type: in vivo, Echinochloa crus-galli; conditions: scored visually after about 3 weeks vs untreated controls, 100% = plants have died, 0% = like control plants
From the text: as §2

STEME [7] = experiment: Post-emergence herbicidal action against STEME; assay type: in vivo, Stellaria media; conditions: 1280 g/ha, visual rating about 3 weeks after treatment
Method: as §1

SETVI [8] = experiment: Post-emergence herbicidal action against SETVI; assay type: in vivo, Setaria viridis; conditions: 1280 g/ha, post-emergence at one-leaf stage, rated visually after about 3 weeks vs untreated controls
Method: as §1

O=C(COc1nn(-c2ccc(F)cc2)c(-c2cccc(F)c2)c1Br)OCc1cccc(F)c1 [I-123]
Post-emergence action against AMARE in % (AMARE [1]): 90%
Post-emergence action against MATIN in % (MATIN): 90%
Post-emergence action against ECHCG in % (ECHCG [2]): 90%
Pre-emergence action against SETVI in % (SETVI [3]): 90%
Pre-emergence action against STEME in % (STEME [4]): 100%
Pre-emergence action against AMARE in % (AMARE [5]): 100%

O=C(O)COc1nn(-c2ccccc2F)c(-c2ccc(F)c(F)c2)c1Br [I-136]
Post-emergence action against AMARE in % (AMARE [1]): 90%
Pre-emergence action at 1280 g/ha against ECHCG in % (ECHCG [6]): 100%
Post-emergence action against MATIN in % (MATIN): 90%
Post-emergence action against ECHCG in % (ECHCG [2]): 100%
Post-emergence action against STEME in % (STEME [7]): 100%
Pre-emergence action against SETVI in % (SETVI [3]): 100%
Pre-emergence action against STEME in % (STEME [4]): 100%
Pre-emergence action against AMARE in % (AMARE [5]): 100%

C=CCNC(=O)COc1nn(-c2ccccc2F)c(-c2ccc(F)c(F)c2)c1Cl [III-067]
Pre-emergence action at 1280 g/ha against ECHCG in % (ECHCG [6]): 100%
Post-emergence action against MATIN in % (MATIN): 90%
Post-emergence action against STEME in % (STEME [7]): 100%
Post-emergence action against SETVI in % (SETVI [8]): 100%
Pre-emergence action against SETVI in % (SETVI [3]): 100%
Pre-emergence action against STEME in % (STEME [4]): 90%
Pre-emergence action against AMARE in % (AMARE [5]): 100%

CCOC(=O)CCNC(=O)COc1nn(-c2ccc(F)cc2)c(-c2cccc(F)c2)c1Br [III-019]
Post-emergence action against AMARE in % (AMARE [1]): 100%
Post-emergence action against MATIN in % (MATIN): 90%
Post-emergence action against ECHCG in % (ECHCG [2]): 90%
Post-emergence action against SETVI in % (SETVI [8]): 90%
Pre-emergence action against SETVI in % (SETVI [3]): 100%
Pre-emergence action against STEME in % (STEME [4]): 100%
Pre-emergence action against AMARE in % (AMARE [5]): 90%

CCOC(=O)COc1nn(-c2ccccc2F)c(-c2ccc(F)c(F)c2)c1[N+](=O)[O-] [I-143]
Post-emergence action against AMARE in % (AMARE [1]): 100%
Post-emergence action against MATIN in % (MATIN): 100%
Post-emergence action against ECHCG in % (ECHCG [2]): 100%
Post-emergence action against STEME in % (STEME [7]): 100%
Pre-emergence action against SETVI in % (SETVI [3]): 100%
Pre-emergence action against STEME in % (STEME [4]): 90%
Pre-emergence action against AMARE in % (AMARE [5]): 100%

C=C(C)CNC(=O)COc1nn(-c2ccccc2F)c(-c2ccccc2)c1Br [III-001]
Post-emergence action against AMARE in % (AMARE [1]): 100%
Pre-emergence action at 1280 g/ha against ECHCG in % (ECHCG [6]): 90%
Post-emergence action against SETVI in % (SETVI [8]): 100%
Pre-emergence action against SETVI in % (SETVI [3]): 100%
Pre-emergence action against STEME in % (STEME [4]): 100%

C=CCNC(=O)COc1nn(-c2c(F)cccc2F)c(-c2ccc(F)c(F)c2)c1Cl [III-068]
Pre-emergence action at 1280 g/ha against ECHCG in % (ECHCG [6]): 100%
Post-emergence action against MATIN in % (MATIN): 90%
Post-emergence action against SETVI in % (SETVI [8]): 90%
Pre-emergence action against SETVI in % (SETVI [3]): 100%
Pre-emergence action against STEME in % (STEME [4]): 90%
Pre-emergence action against AMARE in % (AMARE [5]): 90%

O=C(O)COc1nn(-c2ccc(F)cc2)c(-c2cccc(F)c2)c1Cl [I-120]
Pre-emergence action at 1280 g/ha against ECHCG in % (ECHCG [6]): 90%
Post-emergence action against MATIN in % (MATIN): 90%
Post-emergence action against ECHCG in % (ECHCG [2]): 90%
Pre-emergence action against SETVI in % (SETVI [3]): 100%
Pre-emergence action against STEME in % (STEME [4]): 100%
Pre-emergence action against AMARE in % (AMARE [5]): 100%

CC(Oc1nn(-c2c(F)cccc2F)c(-c2ccc(F)c(F)c2)c1Br)C(=O)O (centres unmarked) [I-167]
Pre-emergence action at 1280 g/ha against ECHCG in % (ECHCG [6]): 100%
Post-emergence action against ECHCG in % (ECHCG [2]): 90%
Post-emergence action against STEME in % (STEME [7]): 100%
Pre-emergence action against SETVI in % (SETVI [3]): 100%
Pre-emergence action against STEME in % (STEME [4]): 100%
Pre-emergence action against AMARE in % (AMARE [5]): 100%

C#CCNC(=O)COc1nn(-c2ccc(F)cc2)c(-c2cccc(F)c2)c1Cl [III-023]
Pre-emergence action at 1280 g/ha against ECHCG in % (ECHCG [6]): 90%
Post-emergence action against SETVI in % (SETVI [8]): 100%
Pre-emergence action against SETVI in % (SETVI [3]): 100%
Pre-emergence action against STEME in % (STEME [4]): 100%
Pre-emergence action against AMARE in % (AMARE [5]): 90%

CCOC(=O)CCNC(=O)COc1nn(-c2cccc(F)c2)c(-c2ccccc2)c1Br [III-033]
Post-emergence action against AMARE in % (AMARE [1]): 90%
Pre-emergence action at 1280 g/ha against ECHCG in % (ECHCG [6]): 90%
Post-emergence action against SETVI in % (SETVI [8]): 100%
Pre-emergence action against SETVI in % (SETVI [3]): 100%
Pre-emergence action against STEME in % (STEME [4]): 100%
Pre-emergence action against AMARE in % (AMARE [5]): 90%

COC(=O)C(C)Oc1nn(-c2ccccc2)c(-c2ccc(F)cc2)c1Cl (centres unmarked) [I-145]
Pre-emergence action at 1280 g/ha against ECHCG in % (ECHCG [6]): 100%
Post-emergence action against MATIN in % (MATIN): 90%
Post-emergence action against STEME in % (STEME [7]): 100%
Post-emergence action against SETVI in % (SETVI [8]): 90%
Pre-emergence action against SETVI in % (SETVI [3]): 100%
Pre-emergence action against STEME in % (STEME [4]): 100%
Pre-emergence action against AMARE in % (AMARE [5]): 90%

COC(=O)COc1nn(-c2ccc(F)cc2)c(-c2cccc(F)c2)c1Br [I-107]
Post-emergence action against AMARE in % (AMARE [1]): 100%
Pre-emergence action at 1280 g/ha against ECHCG in % (ECHCG [6]): 100%
Post-emergence action against MATIN in % (MATIN): 100%
Post-emergence action against ECHCG in % (ECHCG [2]): 90%
Post-emergence action against STEME in % (STEME [7]): 90%
Pre-emergence action against SETVI in % (SETVI [3]): 90%
Pre-emergence action against STEME in % (STEME [4]): 100%
Pre-emergence action against AMARE in % (AMARE [5]): 90%

CCOC(=O)COc1nn(-c2cc(F)c(F)cc2F)c(-c2ccccc2)c1Cl [I-093]
Post-emergence action against AMARE in % (AMARE [1]): 100%
Pre-emergence action at 1280 g/ha against ECHCG in % (ECHCG [6]): 100%
Post-emergence action against MATIN in % (MATIN): 100%
Post-emergence action against ECHCG in % (ECHCG [2]): 100%
Post-emergence action against STEME in % (STEME [7]): 100%
Pre-emergence action against SETVI in % (SETVI [3]): 100%
Pre-emergence action against STEME in % (STEME [4]): 100%
Pre-emergence action against AMARE in % (AMARE [5]): 100%

COC(=O)[C@H](C)Oc1nn(-c2cccc(F)c2)c(-c2cccc(F)c2)c1C#N [I-126]
Post-emergence action against AMARE in % (AMARE [1]): 100%
Post-emergence action against ECHCG in % (ECHCG [2]): 90%
Post-emergence action against STEME in % (STEME [7]): 100%
Post-emergence action against SETVI in % (SETVI [8]): 90%
Pre-emergence action against SETVI in % (SETVI [3]): 100%
Pre-emergence action against STEME in % (STEME [4]): 100%
Pre-emergence action against AMARE in % (AMARE [5]): 100%

COC(=O)CCNC(=O)COc1nn(-c2ccc(F)cc2)c(-c2cccc(F)c2)c1Cl [III-026]
Post-emergence action against AMARE in % (AMARE [1]): 90%
Post-emergence action against MATIN in % (MATIN): 90%
Post-emergence action against SETVI in % (SETVI [8]): 100%
Pre-emergence action against SETVI in % (SETVI [3]): 90%
Pre-emergence action against AMARE in % (AMARE [5]): 90%
